According to publication PMC10931776, “Modes of Interactions with DNA/HSA Biomolecules and Comparative Cytotoxic Studies of Newly Synthesized Mononuclear Zinc(II) and Heteronuclear Platinum(II)/Zinc(II) Complexes toward Colorectal Cancer Cells” (International Journal of Molecular Sciences, 2024):

Assays:
[1] = test system: CT26 cells; experiment: Cell cycle analysis by flow cytometry; format: cell-based, mouse; settings: CT26, 24 h treatment, vs untreated
Experimental: The study of cell cycle arrest in CT26 carcinoma cells treated with the potent compound C1 was conducted to elucidate the potential cellular mechanisms underlying its anticancer effect. For this purpose, CT26 cells were subjected to 24 h treatment with the C1 complex. […] This arrest is likely attributable to molecular alterations within the cancer cells post-treatment. […] This reduction in the S phase, where DNA replication occurs, further indicates the efficacy of the C1 complex in hindering cell cycle progression. […] The induction of cell cycle arrest by the C1 compound potentially curtails the growth and dissemination of carcinoma cells, underscoring its efficacy as a promising anticancer agent.
Our research progressed to explore the potential effects of the newly synthesized C1 complex on the cell cycle dynamics of CT26 tumor cells. […] Each sample tube was then treated with a specific antibody targeting Ki67 (eBioscience, San Diego, CA, USA)/1 μL of Vybrant® DyeCycleTM Ruby stain (Thermo Fisher Scientific Inc., Waltham, MA, USAand subsequently analyzed using a FACS Calibur flow cytometer (BD Biosciences, San Jose, CA, USA). A minimum of 15,000 events per sample were examined. Data analysis was conducted using the FlowJo vX.0.7 software, allowing for a detailed assessment of the cell cycle phases and any impact induced by the C1 complex.

[2] = test system: human colorectal carcinoma (HCT116); experiment: MTT cytotoxicity assay, HCT116; format: cell-based; settings: 48 h
Experimental: The in vitro cytotoxicity of newly synthesized mono- and heteronuclear platinum(II)/and zinc(II) complexes, featuring a 4,4′,4″-tri-tert-butyl-2,2′:6′,2″-terpyridine ligand (designated as C1–C5), was assessed using MTT assay procedures. This evaluation targeted various cell lines: mouse colorectal carcinoma (CT26), human colorectal carcinoma (HCT116 and SW480), and non-cancerous mouse mesenchymal stem cells (mMSC). These cell lines were exposed to synthesized complexes for 48 h, with concentrations ranging from 1.17 to 150 μM.
In our study, various cell lines were cultured, including mouse colorectal carcinoma (CT26), human colorectal carcinoma (HCT116 and SW480) obtained from ATCC, USA, and mouse mesenchymal stem cells (mMSC, Gibco), New York, NY, USA). These cell lines were consistently maintained in complete Dulbecco’s Modified Eagle Medium (DMEM) supplemented with 10% fetal bovine serum (FBS) (Sigma Aldrich, St. Louis, MO, USA), 100 IU/mL penicillin, and 100 μg/mL streptomycin antibiotics (Invitrogen, Carlsbad, CA, USA). The cultures were incubated at 37 °C in a humidified atmosphere of 5% carbon dioxide (CO2). […] The viability and count of the cells were determined using Trypan blue staining, ensuring the accuracy and reliability of the experimental outcomes.
The cytotoxic effects of five newly synthesized complexes, alongside cisplatin, were assessed through the MTT assay method, in line with previously established protocols. During the exponential growth phase, cells were collected from culture flasks, counted, and then seeded in 96-well culture plates at a density of 5·10^3 cells per well. Subsequent treatment involved exposing these cells to varying concentrations of the newly synthesized complexes and cisplatin (ranging from 1.17 to 150 μM) for a duration of 48 h, with fresh complete medium serving as the control. The results were quantified relative to the control (untreated cells), providing a comparative measure of cytotoxicity. Additionally, IC50 values, representing the concentration required to inhibit 50% of the cell viability, were calculated using Microsoft Office Excel 2010. Lastly, the data were presented as percentages of viable cells in accordance with the methodology outlined in the referenced study, facilitating a comprehensive understanding of the anticancer potential of these compounds.

[3] = biological target: T1, Human serum albumin (HSA) (Homo sapiens, UniProt P02768); experiment: HSA fluorescence quenching; format: binding; settings: HSA 2 µM, complex 0–30 µM, PBS pH 7.4, room temperature, λex 295 nm
T1 construct: reagents in general came from Sigma-Aldrich, Acros Organics or Merck
Excerpt: Human serum albumin (HSA) produces a fluorescence signal when excited at 295 nm due to the tryptophan residues. This characteristic makes fluorescence spectroscopy an effective tool for studying complex interactions involving HSA. If the examined complex interacts with HSA, an increasing concentration of the complex will lead to a decrease in fluorescence, as shown in Figure 4 and Figures S14–S17. […] The Stern–Volmer equation (Equation (S2)) was used to determine the Stern–Volmer constant, Ksv, for the HSA interactions.
The binding affinity of the complexes C1–C5 to HSA has been determined through fluorescence quenching experiments. The measurements were conducted in a 0.01 M PBS with a pH of 7.4 at room temperature. The HSA concentration was kept constant at 2 μM while the concentration of complexes C1–C5 was increased from 0 to 30 μM, resulting in a significant decrease in emissions at 352 nm. Before each measurement, the system was shaken at room temperature. The fluorescence intensity was measured with the wavelength of excitation at 295 nm and recorded in the 300 to 500 nm range. The width of the excitation and emission slits (10 nm) and scan rate were maintained at a constant rate. The Stern–Volmer constants, Ksv, were determined by Equation (2).

T1 sequence (P02768 25-609): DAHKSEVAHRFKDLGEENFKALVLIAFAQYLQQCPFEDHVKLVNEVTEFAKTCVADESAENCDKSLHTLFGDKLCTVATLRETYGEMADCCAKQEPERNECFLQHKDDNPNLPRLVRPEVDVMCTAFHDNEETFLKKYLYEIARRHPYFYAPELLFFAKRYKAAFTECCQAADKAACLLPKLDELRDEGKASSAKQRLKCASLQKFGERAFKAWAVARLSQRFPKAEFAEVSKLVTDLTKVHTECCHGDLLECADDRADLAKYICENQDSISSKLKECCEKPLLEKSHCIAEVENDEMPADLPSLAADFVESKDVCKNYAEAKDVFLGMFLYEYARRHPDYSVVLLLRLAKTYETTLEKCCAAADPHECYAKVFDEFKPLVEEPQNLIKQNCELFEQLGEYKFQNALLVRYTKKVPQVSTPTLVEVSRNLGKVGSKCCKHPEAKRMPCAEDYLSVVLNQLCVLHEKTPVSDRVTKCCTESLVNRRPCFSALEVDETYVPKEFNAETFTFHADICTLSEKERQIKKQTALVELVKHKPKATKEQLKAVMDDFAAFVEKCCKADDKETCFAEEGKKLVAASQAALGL

- Stern–Volmer constant Ksv, HSA [3]: 1.8 ± 0.1 10^4 M^–1
Substance: [ZnCl2(terpy^t^Bu)] [C1]
- Cell cycle distribution, G0/G1 phase [1]: G0/G1 phase arrest
- Cell cycle distribution, synthesis (S) phase [1]: notable decrease
- Selectivity Index (IC50 mMSC/IC50), HCT 116 [2]: 0.6
- IC50 ([2]; read-out: IC50 ± SEM, HCT 116): 88.2 ± 48.5 µM
